Among the data in patent EP4464708A1, “NEW CONTRAST AGENTS FOR USE IN DIAGNOSTIC IMAGING” (Bayer Aktiengesellschaft, priority 2023, dated 2024) are r1 values, retold here.

The data set in a line: Relaxivity measurements at 1.4 T. The note with it: 1.41 T (60 MHz), 37°C, normalized to Mn. It counts as physicochemical. Here is the method:
T1 and T2 relaxation time were measured at 60 MHz (1.41 T) and 37°C using a Bruker mq60 minispec contrast agent analyzer. Manganese containing chelates were dissolved in different media at and each relaxivity measurement was performed using three different Mn concentrations. Measurement of r1 and r2 relaxivities were performed using concentrations of 0, 0.25, 0.5 and 1mM Mn in water and human plasma containing heparin as anticoagulant. The relaxivities ri (where i=1, 2) were calculated based on the measured relaxation rates Ri in water and plasma: ri = (Ri−Ri(0))/CMn [formula] where Ri(0) represent the relaxation rate of the respective solvent and CMn the concentration of the compound normalized to Manganese. The Manganese concentrations of the investigated solutions were verified by Inductively Coupled Plasma Mass Spectrometry (ICP-MS Agilent 7500a, Waldbronn, Germany). Table 1: Relaxivities of investigated compound in water and human plasma at 1.41 T. All values are measured at 37°C and normalized to Mn and given in L mmol-1 s-1.

Take `O=C(CCC(C(=O)[O-])N1CCOCCN(C(CCC(=O)NC[C@H](O)[C@@H](O)[C@H](O)[C@H](O)CO)C(=O)[O-])Cc2cccc(n2)C1)NC[C@H](O)[C@@H](O)[C@H](O)[C@H](O)CO.[Mn+2]` (stereo partly drawn) [Example 2, manganese(^2+) 2-[9-(1-carboxylato-4-oxo-4-{[(2S,3R,4R,5R)-2,3,4,5,6-pentahydroxyhexyl]amino}butyl)-6-oxa-3,9,15-triazabicyclo[9.3.1]pentadeca-1(15),11,13-trien-3-yl]-5-oxo-5-{[(2S,3R,4R,5R)-2,3,4,5,6-pentahydroxyhexyl]amino}pentanoate]: the r1 reads like this: (human plasma (heparin as anticoagulant)) 6.4 L mM^-1s^-1; (water) 5.0 L mM^-1s^-1.
